Test system: depressive patient
Test: Fluctuation in the difference of Lyapunov exponent and entropy (mirror dynamic) under medication
Assay type: in vivo, human
Conditions: Patient A or Patient B, early stages of treatment, FIG. 15
Method: Taking for an example the case where the action that may change a biological state is a medication, described below is a judging method for the symmetric property of Lyapunov exponent and entropy directly from the graph where the variations of these exponents with time are recorded.
This means, in other words, there exist fluctuations in the difference between Lyapunov exponent and entropy, and such a state can be called “mirror dynamic”. […] On the other hand, the fluctuation in the difference (shadow area) of Lyapunov exponent and entropy is minor in the early stages of treatment for Patient B, and therefore it can be judged that the effectiveness of medication of cloxazolam (1 mg) is low. […]
In the method according to this embodiment for judging the efficacy of an action, measurements of Lyapunov exponent and entropy are carried out at least twice, i.e. before and after the medication. […] Lyapunov exponent and entropy measured at least once after the medication are compared to the results before the medication, the variation in the symmetric property between the Lyapunov exponent and the entropy and the directional property of temporal variation in the difference between the Lyapunov exponent and the entropy, and then the effectiveness of the drug can be judged. […]

O=C1CN2CCOC2(c2ccccc2Cl)c2cc(Cl)ccc2N1 (stereo not shown) [cloxazolam, Cloxazolam]
effectiveness of medication judged from fluctuation in the difference (shadow area) of Lyapunov exponent and entropy: low

— patent US20040137639A1, “Method of judging efficacy of biological state action affecting bioligical state, judging apparatus, judging system, judging program and recording medium holding the program” (priority 2001, published 2004)
